Test results reported in the NIST ThermoML archive (doi:10.1021/je0301489).
± gives the expanded uncertainty stated by the source.

Legend:
[1] = xn = mol fraction of the nth substance listed; details: 101.33 kPa, Liquid
[2] = refractive index (Na D-line) (dimensionless); xn = mol fraction of the nth substance listed; details: 101.33 kPa, Liquid

CCCCCCCCOC(=O)c1ccccc1C(=O)OCCCCCCCC [dioctyl 1,2-benzenedicarboxylate] + C1COCCO1
Details | mass density, 298.15 K [kg/m3] | mass density, 303.15 K [kg/m3] | mass density, 308.15 K [kg/m3] | refractive index, 298.15 K | refractive index, 303.15 K | refractive index, 308.15 K | speed of sound, 298.15 K [m/s] | viscosity, 298.15 K [mPa·s] | viscosity, 303.15 K [mPa·s] | viscosity, 308.15 K [mPa·s]
[1], x2 = 0 | 980.7 ± 1 | 977.1 ± 1 | 973.1 ± 1 | – | – | – | 1421 ± 3 | 43.03 ± 0.7 | 30.18 ± 0.5 | 21.88 ± 0.37
[1], x2 = 0.1337 | 982.2 ± 1 | 978.3 ± 1 | 974.4 ± 1.1 | – | – | – | 1416 ± 3 | 32.58 ± 0.54 | 24.97 ± 0.42 | 17.36 ± 0.3
[1], x2 = 0.2243 | 983.4 ± 1 | 979.4 ± 1 | 975.2 ± 1.1 | – | – | – | 1412 ± 3 | 26.39 ± 0.44 | 20.41 ± 0.35 | 14.44 ± 0.26
[1], x2 = 0.3207 | 984.8 ± 1 | 980.5 ± 1 | 976.4 ± 1.1 | – | – | – | 1406 ± 3 | 20.73 ± 0.36 | 16.1 ± 0.28 | 11.47 ± 0.21
[1], x2 = 0.4226 | 986.5 ± 1 | 982.2 ± 1 | 977.8 ± 1.1 | – | – | – | 1400 ± 3 | 15.4 ± 0.27 | 12.12 ± 0.22 | 8.836 ± 0.17
[1], x2 = 0.5169 | 988.4 ± 1 | 983.9 ± 1.1 | 979.6 ± 1.1 | – | – | – | 1394 ± 3 | 11.02 ± 0.21 | 8.852 ± 0.17 | 6.689 ± 0.14
[1], x2 = 0.6054 | 990.7 ± 1 | 986.3 ± 1.1 | 981.9 ± 1.1 | – | – | – | 1388 ± 3 | 8.056 ± 0.16 | 6.528 ± 0.13 | 5.001 ± 0.11
[1], x2 = 0.7161 | 995 ± 1.1 | 990.5 ± 1.1 | 985.9 ± 1.1 | – | – | – | 1379 ± 3 | 4.947 ± 0.11 | 4.096 ± 0.091 | 3.246 ± 0.073
[1], x2 = 0.8031 | 1000.2 ± 1.1 | 995.4 ± 1.1 | 990.6 ± 1.1 | – | – | – | 1372 ± 3 | 3.213 ± 0.073 | 2.717 ± 0.062 | 2.222 ± 0.052
[1], x2 = 0.9017 | 1009.9 ± 1.1 | 1004.6 ± 1.1 | 999.5 ± 1.2 | – | – | – | 1361 ± 3 | 1.863 ± 0.044 | 1.612 ± 0.039 | 1.361 ± 0.033
[2], x2 = 0 | – | – | – | 1.485 ± 0.0025 | 1.4831 ± 0.0025 | 1.481 ± 0.0025 | – | – | – | –
[2], x2 = 0.1337 | – | – | – | 1.4836 ± 0.0025 | 1.4819 ± 0.0025 | 1.4804 ± 0.0025 | – | – | – | –
[2], x2 = 0.2243 | – | – | – | 1.4822 ± 0.0025 | 1.4798 ± 0.0025 | 1.4775 ± 0.0025 | – | – | – | –
[2], x2 = 0.3207 | – | – | – | 1.4812 ± 0.0025 | 1.4784 ± 0.0025 | 1.4756 ± 0.0025 | – | – | – | –
[2], x2 = 0.4226 | – | – | – | 1.4781 ± 0.0025 | 1.4771 ± 0.0025 | 1.4762 ± 0.0025 | – | – | – | –
[2], x2 = 0.5169 | – | – | – | 1.4733 ± 0.0025 | 1.4717 ± 0.0025 | 1.47 ± 0.0025 | – | – | – | –
[2], x2 = 0.6054 | – | – | – | 1.4692 ± 0.0025 | 1.4673 ± 0.0025 | 1.4652 ± 0.0025 | – | – | – | –
[2], x2 = 0.7161 | – | – | – | 1.463 ± 0.0025 | 1.461 ± 0.0025 | 1.46 ± 0.0025 | – | – | – | –
[2], x2 = 0.8031 | – | – | – | 1.4566 ± 0.0025 | 1.4541 ± 0.0025 | 1.4516 ± 0.0025 | – | – | – | –
[2], x2 = 0.9017 | – | – | – | 1.4422 ± 0.0025 | 1.4401 ± 0.0025 | 1.4379 ± 0.0025 | – | – | – | –

CCOC(=O)c1ccccc1C(=O)OCC [diethyl phthalate] + C1COCCO1
Details | mass density, 298.15 K [kg/m3] | mass density, 303.15 K [kg/m3] | mass density, 308.15 K [kg/m3] | refractive index, 298.15 K | refractive index, 303.15 K | refractive index, 308.15 K | speed of sound, 298.15 K [m/s] | viscosity, 298.15 K [mPa·s] | viscosity, 303.15 K [mPa·s] | viscosity, 308.15 K [mPa·s]
[1], x2 = 0 | 1115.1 ± 2.1 | 1110.2 ± 2.1 | 1105.6 ± 2.1 | – | – | – | 1446 ± 5 | 7.926 ± 0.14 | 6.129 ± 0.11 | 4.893 ± 0.091
[1], x2 = 0.1133 | 1110.7 ± 1.9 | 1105.8 ± 2 | 1101 ± 2 | – | – | – | 1435 ± 4 | 6.52 ± 0.11 | 5.327 ± 0.093 | 4.134 ± 0.073
[1], x2 = 0.2083 | 1106.5 ± 1.8 | 1101.5 ± 1.9 | 1096.6 ± 1.9 | – | – | – | 1427 ± 4 | 5.536 ± 0.092 | 4.567 ± 0.077 | 3.597 ± 0.061
[1], x2 = 0.3086 | 1101.4 ± 1.7 | 1096.3 ± 1.8 | 1091.4 ± 1.8 | – | – | – | 1418 ± 4 | 4.593 ± 0.074 | 3.813 ± 0.062 | 3.032 ± 0.05
[1], x2 = 0.409 | 1095.5 ± 1.6 | 1090.4 ± 1.7 | 1085.3 ± 1.7 | – | – | – | 1408 ± 4 | 3.793 ± 0.059 | 3.18 ± 0.05 | 2.568 ± 0.04
[1], x2 = 0.5026 | 1089.1 ± 1.6 | 1084 ± 1.6 | 1078.7 ± 1.6 | – | – | – | 1399 ± 4 | 3.122 ± 0.047 | 2.637 ± 0.04 | 2.151 ± 0.033
[1], x2 = 0.5985 | 1081.4 ± 1.5 | 1076.1 ± 1.5 | 1070.9 ± 1.5 | – | – | – | 1390 ± 4 | 2.544 ± 0.037 | 2.184 ± 0.032 | 1.824 ± 0.027
[1], x2 = 0.702 | 1071.6 ± 1.4 | 1066.1 ± 1.4 | 1060.8 ± 1.4 | – | – | – | 1380 ± 4 | 2.037 ± 0.029 | 1.753 ± 0.025 | 1.468 ± 0.021
[1], x2 = 0.8001 | 1060.2 ± 1.3 | 1054.7 ± 1.3 | 1049.2 ± 1.4 | – | – | – | 1370 ± 4 | 1.641 ± 0.022 | 1.436 ± 0.02 | 1.23 ± 0.017
[1], x2 = 0.8975 | 1046.3 ± 1.2 | 1040.7 ± 1.2 | 1035 ± 1.3 | – | – | – | 1359 ± 4 | 1.319 ± 0.018 | 1.18 ± 0.016 | 1.042 ± 0.014
[2], x2 = 0 | – | – | – | 1.5001 ± 0.0009 | 1.4978 ± 0.0009 | 1.4958 ± 0.0009 | – | – | – | –
[2], x2 = 0.1133 | – | – | – | 1.4962 ± 0.0008 | 1.494 ± 0.0008 | 1.4917 ± 0.0008 | – | – | – | –
[2], x2 = 0.2083 | – | – | – | 1.4924 ± 0.0008 | 1.4902 ± 0.0008 | 1.4882 ± 0.0008 | – | – | – | –
[2], x2 = 0.3086 | – | – | – | 1.4882 ± 0.0008 | 1.486 ± 0.0008 | 1.4837 ± 0.0008 | – | – | – | –
[2], x2 = 0.409 | – | – | – | 1.4826 ± 0.0008 | 1.4805 ± 0.0008 | 1.4783 ± 0.0008 | – | – | – | –
[2], x2 = 0.5026 | – | – | – | 1.4768 ± 0.0007 | 1.4747 ± 0.0007 | 1.4724 ± 0.0007 | – | – | – | –
[2], x2 = 0.5985 | – | – | – | 1.47 ± 0.0007 | 1.4676 ± 0.0007 | 1.4653 ± 0.0007 | – | – | – | –
[2], x2 = 0.702 | – | – | – | 1.4608 ± 0.0007 | 1.4585 ± 0.0007 | 1.4564 ± 0.0007 | – | – | – | –
[2], x2 = 0.8001 | – | – | – | 1.4504 ± 0.0007 | 1.4481 ± 0.0007 | 1.4457 ± 0.0007 | – | – | – | –
[2], x2 = 0.8975 | – | – | – | 1.4376 ± 0.0007 | 1.435 ± 0.0007 | 1.4326 ± 0.0007 | – | – | – | –
